Reference: patent US7166621B2, “Pyridyloxyalkanoic acid amide derivatives useful as fungicides” (priority 2001, dated 2007)

Tests used:
Phytophthora infestans = test: whole plant or invertebrate; assay type: in vivo; settings: in Solanum lycopersicum, foliar, 96 h, read-out: control of Phytophthora infestans
Plasmopara viticola = test: Leaf disk assay, downy mildew of grapevine, preventive fungicidal activity; assay type: in vivo; settings: foliar, 168 h
[1] = grapevine leaf disks, preventive, assessed seven days after inoculation

Row | Compound | pest or weed control at 200 ppm (Phytophthora infestans) [%] | pest or weed control at 200 ppm (Plasmopara viticola; [1]) [%] | pest or weed control at 200 ppm (Plasmopara viticola) [%] | other results
1 | CCC#CC(C)(C)NC(=O)C(CC)Oc1cncc(C(=O)O)c1 (centres unmarked) |  |  |  | melting point: 162 to 164 °C
2 | CC#CC(C)(C)NC(=O)C(CC)Oc1cncc(Br)c1 (single isomer, unassigned; (-)) [(−) isomer of Compound 13 of Table 1, (−) 2-(5-bromo-3-pyridyloxy)-N-(4-methylpent-2-yn-4-yl)butyramide] | ≥ 70 |  |  | 
3 | CCC#CC(C)(C)NC(=O)C(CC)Oc1cncc(Cl)c1 (centres unmarked) [Compound No. 1 of Table 1, 2-(5-chloro-3-pyridyloxy)N-(2-methylhex-3-yn-2-yl)butyramide] |  | ≥ 70 |  | 
4 | CC#CC(C)(C)NC(=O)C(CCC)Oc1cncc(Cl)c1 (centres unmarked) [Compound No. 3 of Table 1, 2-(5chloro-3-pyridyloxy)-N-(2-methylpent-3-yn-2-yl)valeramide] | ≥ 70 | ≥ 70 |  | 
5 | CC#CC(C)(C)NC(=O)C(CC)Oc1cncc(Cl)c1 (centres unmarked) [Compound No. 8 of Table 1, 2-(5-chloro-3-pyridyloxy)-N-(2-methylpent-3-yn-2-yl)butyramide] |  | ≥ 70 |  | 
6 | CC#CC(C)(C)N(C)C(=O)C(CC)Oc1cncc(Cl)c1 (centres unmarked) [Compound No. 10 of Table 1, 2-(5-chloro-3-pyridyloxy)-N-methyl-N-(2-methylpent-3-yn-2-yl)butyramide] |  | ≥ 70 |  | 
7 | CC#CC(C)(C)NC(=O)Cc1ccccc1Oc1cncc(Cl)c1 [Compound No. 11 of Table 1, 2-(5-chloro-3-pyridyloxy)-N-(2-methylpent-3-yn-2-yl)phenylacetamide] | ≥ 70 |  |  | 
8 | CC#CC(C)(C)NC(=O)C(CC)Oc1cncc(Br)c1 (centres unmarked) [Compound No. 13 of Table 1, 2-(5-bromo-3-pyridyloxy)-N-(2-methylpent-3-yn-2-yl)butyramide] |  | ≥ 70 |  | 
9 | CCC#CC(C)(C)NC(=O)C(CC)Oc1cncc(Br)c1 (centres unmarked) [Compound No. 14 of Table 1, 2-(5-bromo-3-pyridyloxy)-N-(2-methylhex-3-yn-2-yl)butyramide] |  | ≥ 70 |  | 
10 | CCC#CC(C)(C)NC(=O)C(CC)Oc1cncc(C(=O)N(C(C)C)C(C)C)c1 (centres unmarked) [Compound No. 15 of Table 1, 2-(5-(N,N-diisopropylaminocarbonyl)-3-pyridyloxy)-N-(5-methylhex-3-yn-5-yl)butyramide] | ≥ 70 | ≥ 70 |  | 
11 | CC#CC(C)(C)NC(=O)C(COC)Oc1cncc(Cl)c1 (centres unmarked) [Compound No. 21 of Table 1, 2-(5-chloro-3-pyridyloxy)-N-(4-methylpent-2-yn-4-yl)-3-methoxypropionamide] |  |  | ≥ 70 | 
12 | CCC(Oc1cncc(Cl)c1)C(=O)NC(C#CC(C)C)OC (centres unmarked) [Compound No. 49 of Table 1, 2-(5-chloro-3-pyridyloxy)-N-(1-methoxy-4-methylpent-2-ynyl)butyramide] |  |  | ≥ 70 | 
13 | CCCC#CC(C)(C)NC(=O)C(CC)Oc1cncc(Cl)c1 (centres unmarked) [Compound No. 120 of Table 1, 2-(5-chloro-3-pyridyloxy)-N-(6-methylhept-4-yn-6-yl)butyramide] |  | ≥ 70 |  | melting point: 70 to 71 °C
14 | CCCC#CC(C)(C)NC(=O)C(CC)Oc1cncc(Br)c1 (centres unmarked) [Compound No. 128 of Table 1, 2-(5-bromo-3-pyridyloxy)-N-(6-methylhept4-yn-6-yl)butyramide] | ≥ 70 | ≥ 70 |  | 
15 | CC#CC(C)(CC)NC(=O)C(CC)Oc1cncc(Cl)c1 (centres unmarked) [Compound No. 136 of Table 1, 2-(5chloro-3-pyridyloxy)-N-(4methylhex-2-yn-4-yl)butyramide] |  | ≥ 70 |  | 
16 | CC#CC(C)(C)NC(=O)C(CC)Oc1cnc(Cl)c(Cl)c1 (centres unmarked) [Compound No. 247 of Table 1, 2-(5,6-dichloro-3-pyridyloxy)-N-(4-methylpent-2-yn-4-yl)butyramide] |  |  | ≥ 70 | 
17 | CCC(Oc1cnc(Cl)c(Cl)c1)C(=O)NC(C)(C)C#CCOC (centres unmarked) [Compound No. 259 of Table 1, 2-(5,6-dichloro-3-pyridyloxy)-N-(1-methoxy-4-methylpent-2-yn-4-yl)butyramide] |  |  | ≥ 70 | 
18 | CC#CC(C)(C)NC(=O)C(CC)Oc1cncc(Oc2ccccc2)c1SC (centres unmarked) [Compound No. 263 of Table 1, 2-(4-methylthio-5-phenoxy-3-pyridyloxy)-N-(4-methylpent-2-yn-4-yl)butyramide] | ≥ 70 |  | ≥ 70 | 
19 | CC#CC(C)(C)NC(=O)C(CC)Oc1cncc(C(C)=O)c1 (centres unmarked) [Compound No. 326 of Table 1, 2-(5-acetyl-3-pyridyloxy)-N-(4-methylpent-2-yn-4-yl)butyramide] | ≥ 70 |  |  | 
20 | CC#CC(C)(C)NC(=O)C(CC)Oc1cncc(C#N)c1 (centres unmarked) [Compound No. 342 of Table 1, 2-(5-cyano-3-pyridyloxy)-N-(4-methylpent-2-yn-4-yl)butyramide] | ≥ 70 |  | ≥ 70 | 
21 | C#Cc1cncc(OC(CC)C(=O)NC(C)(C)C#CC)c1 (centres unmarked) [Compound No. 358 of Table 1, 2-(5-ethynyl-3-pyridyloxy)-N-(4-methylpent-2-yn-4-yl)butyramide] |  |  | ≥ 70 | 
22 | C=Cc1cncc(OC(CC)C(=O)NC(C)(C)C#CC)c1 (centres unmarked) [Compound No. 374 of Table 1, 2-(5-ethenyl-3-pyridyloxy)-N-(4-methylpent-2-yn-4-yl)butyramide] | ≥ 70 |  |  | 
23 | C=C(OCC)c1cncc(OC(CC)C(=O)NC(C)(C)C#CC)c1 (centres unmarked) [Compound No. 378 of Table 1, 2-[5-(1-ethoxyethen-1-yl)-3-pyridyloxy]-N-(4-methylpent-2-yn-4-yl)butyramide] | ≥ 70 |  |  | 
